US20200223894A1, “PEPTIDES FOR THE TREATMENT OF CONDITIONS ASSOCIATED WITH ADIPONECTIN DYSFUNCTION” (AUCKLAND UNISERVICES LIMITED, priority 2017, published 2020)

T1: ERp44-adiponectin interaction (Mus musculus, UniProt Q9D1Q6)
T1 construct: from tissue; host or cells: adipose tissue of C57BL/6J mice on a high-fat diet, treated i.p. with the peptides
T1 sequence (Q9D1Q6 30-406): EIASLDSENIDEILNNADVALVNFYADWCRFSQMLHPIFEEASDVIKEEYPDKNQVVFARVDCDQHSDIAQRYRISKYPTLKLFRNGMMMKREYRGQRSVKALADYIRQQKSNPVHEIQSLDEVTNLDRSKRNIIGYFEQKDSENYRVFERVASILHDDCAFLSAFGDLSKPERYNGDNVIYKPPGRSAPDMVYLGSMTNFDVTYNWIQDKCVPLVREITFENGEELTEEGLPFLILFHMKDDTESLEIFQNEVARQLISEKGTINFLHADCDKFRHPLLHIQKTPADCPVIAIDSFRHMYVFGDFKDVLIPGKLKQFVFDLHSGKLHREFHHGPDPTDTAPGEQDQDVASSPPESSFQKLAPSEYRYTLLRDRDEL

T2: Recombinant mouse ERp44 (murine ERp44 without the signal sequence, monomeric fraction) (mouse, UniProt Q9D1Q6 30-406)
T2 construct: mature; Cloned into pET28b at the NheI and XhoI sites and expressed in E. coli; The monomer fraction from Superdex-200 was used; Free ERp44 is observed at 46,074 amu in ESI-MS; also called recombinant ERp44
T2 sequence (looked up): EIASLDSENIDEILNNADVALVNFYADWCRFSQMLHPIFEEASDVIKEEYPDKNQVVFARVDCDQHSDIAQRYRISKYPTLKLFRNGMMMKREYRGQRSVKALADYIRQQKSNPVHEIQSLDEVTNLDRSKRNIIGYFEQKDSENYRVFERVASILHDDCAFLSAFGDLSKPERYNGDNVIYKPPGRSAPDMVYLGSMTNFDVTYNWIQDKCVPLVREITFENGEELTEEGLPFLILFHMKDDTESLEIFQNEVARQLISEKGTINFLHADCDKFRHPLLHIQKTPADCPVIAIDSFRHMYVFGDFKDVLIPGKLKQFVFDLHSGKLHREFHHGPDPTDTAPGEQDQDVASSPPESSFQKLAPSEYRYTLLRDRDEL


Columns and labels:
3T3-L1 adipocytes = test: Adiponectin levels and oligomeric distribution in conditioned media and cell lysate of peptide-treated adipocytes (Western blotting); format: cell-based, murine; settings: for amount of HMW adiponectin in the cell lysate / sub-population of the hexametric adiponectin in the cell lysate: compared to IgM-derived cargo peptides; for HMW adiponectin level in conditioned media / hexamer adiponectin level in conditioned media / trimeric adiponectin level in conditioned media: non-reducing SDS-PAGE
Description: 3T3-L1 cells (ATCC #CL-173, Manassas, Va., USA) were cultured in Dulbecco's Modified Eagle Medium (DMEM) supplemented with 10% fetal bovine serum (FBS) and 1% penicillin-streptomycin-fungisone (PSF) at 37° C. and under 5% CO2 95% humidified air. For differentiation, the confluent 3T3-L1 cultures were supplemented with 10 μg/ml insulin, 0.25 μM dexamethasone and 0.5 mM isobutylmethylxanthine for two days, followed by incubation with 10 μg/ml insulin in the culture medium for another two days. Subsequently, cells were incubated in DMEM with 10% FBS that was changed every two days. Peptide treatment (200 nM in FBS-free medium) was performed in fully differentiated 3T3-L1 adipocyte cultures. After incubation for 24 h, cell lysates and the conditioned medium were collected for subsequent analyses.
(§1) Cells or adipose tissues were washed with phosphate buffer (137 mM NaCl, 2.7 mM KCl, 4.3 mM Na2HPO4, 1.47 mM KH2PO4, pH 7.4) and then solubilized in lysis buffer (25 mM Tris-HCl pH 7.5, 150 mM NaCl, 5 mM NaF, 1% sodium deoxycholate, 1% Nonidet P-40, 1% Triton X-100 plus protease inhibitor mixtures). Equal amounts of lysates (100 μg) were precleared with protein G (Thermo Fisher Scientific, Waltham, Mass., USA) and incubated overnight with specific antibodies at 4° C. with shaking.
(§2) After incubating with protein G for another four hours, the immune-complexes were precipitated by low-speed centrifugation, washed three times with lysis buffer, and eluted in SDS-PAGE sample buffer (50 mM Tris-HCl pH 6.8, 1% SDS, 5% glycerol, 3% β-mercaptomethanol, 0.01% bromophenal blue) or 0.1 M glycine HCl (pH 3.0) and then diluted with non-reducing sample buffer (1% SDS, 5% glycerol, 10 mM Tris-HCl pH6.8) for analyzing adiponectin monomers and oligomers by Western blotting.
Cell lysates, media or serum samples were incubated with non-reducing sample buffer at room temperature for 10 minutes and then separated by 4-20% gradient SDS-PAGE. After transferring to polyvinylidene difluoride (PVDF) membranes, immunoblotting was performed using an in-house antibody against murine adiponectin developed by Antibody and Immunoassay Services, HKU (http://www.pharma.hku.hk/sweb/antibody/PolyclonalAntibodyCont.php?polyclonal_no=60 0005), or antibodies against ERp44 (Santa Cruz Biotechnology, Santa Cruz, Calif.), DsbA-L (Abcam, Cambridge, Mass., USA). Protein bands were quantified by ImageJ and intensities were compared. All experiments were repeated at least six times.

[1] = system: C57/BL6 mice fed a high fat diet; test: Serum total and HMW adiponectin in high fat diet mice after acute peptide injection; format: in vivo, mouse; settings: HFD mice, 10 mg/kg i.p.; for HMW form of adiponectin in serum: normalized to corresponding cargo peptide
Description: (§3) All experimental protocols were approved by the Committee on the Use of Live Animals for Teaching and Research of the University of Hong Kong and carried out in accordance with ARRIVE (Animal Research: Reporting of In Vivo Experiments) as well as institutional guidelines for the care and use of laboratory animals. Mice of the C57BL/6J background were housed in a room under controlled temperature (23±1° C.) with 12 hour light-dark cycles and free access to water and food. Mice were fed with either standard chow (STC; 3.07 kcal/g, LabDiet 5053, Purina Mills, Richmond, Ind., USA) or high-fat diet (HFD; 4.73 kcal/g containing 45% fat, 20% protein and 35% carbohydrate, D12451, Research diet, N.J., USA) starting from four-weeks old.
Immunoprecipitation and Western blotting studies were performed on serum adipose tissue samples obtained from mice as described above in Example 2. The serum was collected 24 hours after injection.
Mice were administered intraperitoneally with the peptides described in Table 2 (10 mg/kg body weight for acute studies at 16-weeks old or 5 mg/kg/day for four-week chronic treatment at 12-weeks old). Body weights of the animals were monitored on a weekly basis. Fasting blood glucose was determined after 16-hours food starvation (from 6:00 pm to 10:00 am) by a Accu-Check Advantage II Glucometer (Roche Diagnostics Mannheim, Germany). Fasting body fat mass was determined by the minispec Body Composition Analyzer (Bruker Optics Inc., Tex., USA). Circulating and tissue contents of lipids, including triglycerides and total cholesterols, were analyzed using LiquiColor® Triglycerides and Stanbio Cholesterol assay kits, respectively. Serum adiponectin concentrations were determined with an in-house ELISA kit as described (Wang et al., 2006 J Biol Chem 281: 16391-16400). Serum insulin levels were measured with an in-house mouse insulin ELISA kit (Cat No. 32100, http://www.pharma.hku.hk/sweb/antibody/ELISA.php). Homeostatic Model Assessment of […]

[2] = system: C57/BL6 mice fed a standard chow diet (STC) or high fat diet (HFD); test: Four-week chronic peptide treatment of mice on STC or HFD: insulin sensitivity and energy homeostasis; format: in vivo, mouse; settings: 5 mg/kg/day i.p., four weeks; for HFD-induced hyperglycemia (fasting glucose levels): 16-hours fasting
Description: as §3
Mice were administered intraperitoneally with the peptides described in Table 2 (10 mg/kg body weight for acute studies at 16-weeks old or 5 mg/kg/day for four-week chronic treatment at 12-weeks old). Body weights of the animals were monitored on a weekly basis. Fasting blood glucose was determined after 16-hours food starvation (from 6:00 pm to 10:00 am) by a Accu-Check Advantage II Glucometer (Roche Diagnostics Mannheim, Germany). Fasting body fat mass was determined by the minispec Body Composition Analyzer (Bruker Optics Inc., Tex., USA). Circulating and tissue contents of lipids, including triglycerides and total cholesterols, were analyzed using LiquiColor® Triglycerides and Stanbio Cholesterol assay kits, respectively. Serum adiponectin concentrations were determined with an in-house ELISA kit as described (Wang et al., 2006 J Biol Chem 281: 16391-16400). Serum insulin levels were measured with an in-house mouse insulin ELISA kit (Cat No. 32100, http://www.pharma.hku.hk/sweb/antibody/ELISA.php). Homeostatic Model Assessment of
Insulin Resistance (HOMA-IR) was calculated as fasting insulin (μU/ml)×fasting glucose (mmol/L)/22.5 for comparison as described (Xu et al., 2013). All results were compared between mice treated with control and CPP peptides.

[3] = target: T1, ERp44-adiponectin interaction; test: ERp44-adiponectin interaction in mouse adipose tissue lysates by co-immunoprecipitation; format: in vivo; settings: HFD mice
Description: as §1, §2
Cell lysates, media or serum samples were incubated with non-reducing sample buffer at room temperature for 10 minutes and then separated by 4-20% gradient SDS-PAGE. […] Protein bands were quantified by ImageJ and intensities were compared. […]

[4] = target: T2, Recombinant mouse ERp44 (murine ERp44 …); test: ESI-MS of ERp44 (43 uM) incubated with 10-fold excess peptide (430 uM), 4 days, pH 6.5; disulfide-linked complex
Description: (§4) Mass spectrometry was used to quantify the amount of disulfide linkage between ERp44 and the various peptides. For this purpose, ERp44 (43 μM) was incubated with 10-fold excess (430 μM) of individual peptide. All samples were incubated for 4 days in 20 mM MES, 150 mM NaCl at pH 6.5 and subsequently subjected to mass spectrometric analyses.
(§5) The column eluate was ionized in the electrospray source of a QSTAR-XL quadrupole time-of-flight mass spectrometer (Applied Biosystems, Foster City, Calif.). A TOF-MS scan from 400 to 1600 m/z was performed. The resulting data were de-convoluted into protein molecular masses using the Bayesian Protein Reconstruct Tool within Analyst QS 1.1 (Applied Biosystems).

[5] = target: T2, Recombinant mouse ERp44 (murine ERp44 …); test: ESI-MS, recombinant mouse ERp44 43 uM with 430 uM peptide, 4 days
Description: as §4, §5

[6] = 200 nM peptide, 24 h, cell lysate
[7] = 200 nM peptide, 24 h, conditioned media, vs corresponding non-CPP cargo peptide
[8] = serum 24 hours after injection, vs corresponding cargo peptide only group

Row | binding result [4] | Molecule | intracellular adiponectin levels (3T3-L1 adipocytes; [6]) | increase in total amount of adiponectin secreted in the media (3T3-L1 adipocytes; [7]) [%] | amount of HMW adiponectin in the cell lysate (3T3-L1 adipocytes; 200 nM, cell lysate) | sub-population of the hexametric adiponectin in the cell lysate (3T3-L1 adipocytes; 200 nM, cell lysate) | HMW adiponectin level in conditioned media (3T3-L1 adipocytes; 200 nM, conditioned media) | hexamer adiponectin level in conditioned media (3T3-L1 adipocytes; 200 nM, conditioned media) | trimeric adiponectin level in conditioned media (3T3-L1 adipocytes; 200 nM, conditioned media) | increase in circulating concentration of adiponectin [1, 8] [%] | HMW form of adiponectin in serum [1] | HFD-induced insulin resistance (calculated HOMA-IR) [2] | HFD-induced reduction of adiponectin concentrations in serum [2] | circulating cholesterol levels [2] | circulating triglyceride levels [2] | lipid (triglyceride) accumulation in livers [2] | HFD-induced hyperglycemia (fasting glucose levels) [2] | other results
1 | – | YGRKKKRRQQRRRDTGGTCY [CPP-M2] | decreased | ~53 | significantly increased | decreased | significantly elevated | significantly elevated | significantly elevated | ~34 | increased | significantly blocked | prevented the reduction | significantly reduced | significantly reduced | attenuated | significantly blocked | –
2 | – | YGRKKKRRQQRRRGTCY [CPP-M1] | decreased | ~45 | significantly increased | decreased | significantly elevated | significantly elevated | significantly elevated | ~28 | increased | significantly blocked | prevented the reduction | significantly reduced | significantly reduced | attenuated | significantly blocked | body fat mass under HFD ([2]; compared to M1 cargo peptide): significantly decreased
3 | – | YGRKKRRQQRRRKGTCAGWMA [CPP-adiponectin] | increased | – | – | – | significantly reduced | – | significantly reduced | – | significantly decreased | – | – | – | – | – | – | reduction of total amount of adiponectin in the conditioned media (3T3-L1 adipocytes; [7]): ~16%; oligomeric composition of adiponectin in the cell lysate (3T3-L1 adipocytes; 200 nM, cell lysate): shifted towards the trimer; decrease in circulating concentration of adiponectin [1, 8]: ~14%; amount of adiponectin bound to ERp44 in mouse adipose tissue [3]: significantly decreased
4 | binds | KGTCAGWMA (also called adiponectin derived peptide) [Adiponectin peptide (adiponectin-derived cargo peptide KGTCAGWMA)] | – | – | – | – | – | – | – | – | – | – | – | – | – | – | – | –
5 | – | DTGGTCY [M2 (IgM-derived cargo peptide DTGGTCY)] | – | – | – | – | – | – | – | – | – | – | – | – | – | – | – | binding result [5]: binds
6 | binds | GTCY [M1 (IgM-derived cargo peptide GTCY)] | – | – | – | – | – | – | – | – | – | – | – | – | – | – | – | –
